Measured values: PMC12677699, “Utilizing Proteolytic‐Resistant Nano‐Short Peptide Based on Naphthyl Tail‐Anchored to Combat Bacterial Infections” (Advanced Science, 2025)
Values after ≈ are worked out from the molar mass of the structure shown.

Key:
S. aureus 11011 = experiment: MIC against clinical strain; format: cell-based; settings: Staphylococcus aureus, 11011, read-out: MIC, S. aureus 11011
Description: (§1) The MIC values of the nano‐short peptides were determined according to standard protocols.^[ [63] ^] Bacterial strains were revived from cryopreservation and cultured in Mueller–Hinton broth (MHB) to logarithmic growth phase, then diluted to a final density of 0.5–1 × 10⁶ CFU mL^−1. Serial dilutions of the nano‐short peptides were prepared in 0.2% bovine serum albumin (BSA) using a 96‐well plate format. Equal volumes of peptide solutions and bacterial suspensions were combined and incubated at 37 °C for 20–22 h. Bacterial growth was assessed by measuring absorbance at 492 nm, with MHB alone (negative control) and untreated bacterial suspension (positive control) included for reference.

A. baumannii AB1901 = experiment: MIC against clinical strain; format: cell-based; settings: Acinetobacter baumannii, AB1901, read-out: MIC, A. baumannii AB1901
Description: as §1

A. baumannii AB1902 = experiment: MIC against clinical strain; format: cell-based; settings: Acinetobacter baumannii, AB1902, read-out: MIC, A. baumannii AB1902
Description: as §1

P. aeruginosa 25349 = experiment: MIC against clinical strain; format: cell-based; settings: Pseudomonas aeruginosa, 25349, read-out: MIC, P. aeruginosa 25349
Description: as §1

S. aureus ATCC 29213 = experiment: Drug resistance assay, 30 serial passages; format: cell-based, Staphylococcus aureus; settings: S. aureus ATCC 29213, 30 successive passages at sub-MIC concentrations; gentamicin by day 17
Description: (§2) The potential resistance development of nano‐short peptides was evaluated through 30 serial passages of E. coli ATCC 25922 and S. aureus ATCC 29213 in sub‐MIC conditions,^[ [38] ^] using gentamicin as control.

E. coli ATCC 25922 = experiment: Drug resistance assay, 30 serial passages; format: cell-based, Escherichia coli; settings: E. coli ATCC 25922, 30 successive passages at sub-MIC concentrations
Description: as §2

Row | Compound | MIC (S. aureus 11011) [µM] | MIC (A. baumannii AB1901) [µM] | MIC (A. baumannii AB1902) [µM] | MIC (P. aeruginosa 25349) [µM] | increase in MIC values after serial passage (S. aureus ATCC 29213) [fold] | increase in MIC values after serial passage (E. coli ATCC 25922) [fold]
1 | CC(C)(O/N=C(\C(=O)N[C@@H]1C(=O)N2C(C(=O)[O-])=C(C[n+]3ccccc3)CS[C@H]12)c1csc(N)n1)C(=O)O [Ceftazidime] | 128 (≈ 70 µg/mL) | 8 (≈ 4.37 µg/mL) | 128 (≈ 70 µg/mL) | 32 (≈ 17.5 µg/mL) |  | 
2 | CC[C@H]1OC(=O)[C@H](C)[C@@H](O[C@H]2C[C@@](C)(OC)[C@@H](O)[C@H](C)O2)[C@H](C)[C@@H](O[C@@H]2O[C@H](C)C[C@H](N(C)C)[C@H]2O)[C@](C)(O)C[C@@H](C)C(=O)[C@H](C)[C@@H](O)[C@]1(C)O [Erythromycin] | 128 (≈ 93.9 µg/mL) | 64 (≈ 47 µg/mL) | 128 (≈ 93.9 µg/mL) | 128 (≈ 93.9 µg/mL) |  | 
3 | CNC(C)C1CCC(N)C(OC2C(N)CC(N)C(OC3OCC(C)(O)C(NC)C3O)C2O)O1 (centres unmarked) [Gentamicin] | 128 (≈ 61.1 µg/mL) | 2 (≈ 0.955 µg/mL) | 128 (≈ 61.1 µg/mL) | 128 (≈ 61.1 µg/mL) | 128 | 128
4 | NC[C@H]1O[C@H](O[C@H]2[C@H](O)[C@@H](O[C@H]3O[C@H](CO)[C@@H](O)[C@H](N)[C@H]3O)[C@H](N)C[C@@H]2N)[C@H](O)[C@@H](O)[C@@H]1O [Kanamycin] | 128 (≈ 62 µg/mL) | 128 (≈ 62 µg/mL) | 128 (≈ 62 µg/mL) | 128 (≈ 62 µg/mL) |  | 
5 | CC1COc2c(N3CCN(C)CC3)c(F)cc3c(=O)c(C(=O)O)cn1c23 (centres unmarked) [Ofloxacin] | 128 (≈ 46.3 µg/mL) | 1 (≈ 0.361 µg/mL) | 128 (≈ 46.3 µg/mL) | 2 (≈ 0.723 µg/mL) |  | 
6 | CC1(C)S[C@@H]2[C@H](NC(=O)Cc3ccccc3)C(=O)N2[C@H]1C(=O)O [Penicillin sodium] | 128 | 128 | 128 | 128 |  | 
